From ChEMBL document CHEMBL5223133, “A review of MMP-2 structures and binding mode analysis of its inhibitors to strategize structure-based drug design” (Bioorg Med Chem, 2022) come the findings set out here.

The source made the active and inactive calls. The rule behind the calls is not given here.

For assay [1], the target named is T1, 72 kDa type IV collagenase (Homo sapiens, UniProt P08253). Description: Inhibition of MMP2 (unknown origin).
Target sequence in this assay (P08253 whole entry): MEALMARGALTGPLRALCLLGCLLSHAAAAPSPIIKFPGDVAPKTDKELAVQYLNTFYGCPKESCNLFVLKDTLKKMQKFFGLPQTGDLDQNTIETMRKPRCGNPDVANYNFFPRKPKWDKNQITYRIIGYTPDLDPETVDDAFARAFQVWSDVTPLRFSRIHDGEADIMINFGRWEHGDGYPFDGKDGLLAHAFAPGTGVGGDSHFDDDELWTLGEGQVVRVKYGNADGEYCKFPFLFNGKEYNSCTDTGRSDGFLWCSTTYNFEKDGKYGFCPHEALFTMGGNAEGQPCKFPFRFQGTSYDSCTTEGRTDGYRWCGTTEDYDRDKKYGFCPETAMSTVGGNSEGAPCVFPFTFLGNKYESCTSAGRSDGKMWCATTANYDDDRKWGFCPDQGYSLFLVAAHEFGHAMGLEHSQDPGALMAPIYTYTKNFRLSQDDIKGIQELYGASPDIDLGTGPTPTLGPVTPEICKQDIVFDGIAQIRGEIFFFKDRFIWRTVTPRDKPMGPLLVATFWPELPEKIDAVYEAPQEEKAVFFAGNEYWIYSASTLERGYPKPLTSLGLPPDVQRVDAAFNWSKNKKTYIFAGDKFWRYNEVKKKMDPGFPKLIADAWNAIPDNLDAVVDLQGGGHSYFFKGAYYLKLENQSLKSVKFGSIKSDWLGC
The target in assay [2] is T1, 72 kDa type IV collagenase. Description: Inhibition of human MMP2.
Target sequence in this assay (P08253 whole entry): as above
Assay [3] concerns the target T1, 72 kDa type IV collagenase. Description: Inhibition of MMP2 (unknown origin) gelatinase activity at >= 7.5 uM incubated for 24 hrs by modified zymography assay.
Target sequence in this assay (P08253 110-660 limits assumed): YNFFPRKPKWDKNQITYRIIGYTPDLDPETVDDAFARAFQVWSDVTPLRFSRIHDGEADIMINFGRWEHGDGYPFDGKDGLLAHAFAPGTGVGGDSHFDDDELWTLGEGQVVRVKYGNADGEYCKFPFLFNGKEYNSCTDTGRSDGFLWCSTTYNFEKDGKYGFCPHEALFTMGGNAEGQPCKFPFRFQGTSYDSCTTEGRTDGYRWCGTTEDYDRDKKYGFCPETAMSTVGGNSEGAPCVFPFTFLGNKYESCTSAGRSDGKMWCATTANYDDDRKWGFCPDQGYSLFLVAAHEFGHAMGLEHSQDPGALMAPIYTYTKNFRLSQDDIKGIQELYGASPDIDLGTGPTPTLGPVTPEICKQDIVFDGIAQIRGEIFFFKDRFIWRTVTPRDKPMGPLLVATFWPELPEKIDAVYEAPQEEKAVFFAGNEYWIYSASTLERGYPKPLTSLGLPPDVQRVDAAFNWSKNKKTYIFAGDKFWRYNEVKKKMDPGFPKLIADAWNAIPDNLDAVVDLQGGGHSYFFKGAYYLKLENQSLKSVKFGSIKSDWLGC
Assay [4] concerns the target Matrix metalloproteinase-9 (Homo sapiens) (UniProt P14780). Description: Inhibition of MMP9 (unknown origin) gelatinase activity at 5 to 20 uM incubated for 24 hrs by modified zymography assay. Particulars: dose 5-20 µM.
Assay [5] has the same target. Description: Inhibition of MMP9 (unknown origin) gelatinase activity at >= 7.5 uM incubated for 24 hrs by modified zymography assay.
The target of assay [6] is T1, 72 kDa type IV collagenase. Description: Inhibition of MMP2 (unknown origin) gelatinase activity at 5 to 20 uM incubated for 24 hrs by modified zymography assay. The settings on record: dose 5-20 µM.
Target sequence in this assay (P08253 110-660 limits assumed): as above
Assay [7] concerns A549. Description: Anticancer activity against human A549 cells assessed as cell survival measured after 48 hrs by MTT assay. In kind it is functional, cell-based. The settings on record: A549, 48 h.

Chain of Matrix metalloproteinase-9 (Homo sapiens) (P14780 whole entry): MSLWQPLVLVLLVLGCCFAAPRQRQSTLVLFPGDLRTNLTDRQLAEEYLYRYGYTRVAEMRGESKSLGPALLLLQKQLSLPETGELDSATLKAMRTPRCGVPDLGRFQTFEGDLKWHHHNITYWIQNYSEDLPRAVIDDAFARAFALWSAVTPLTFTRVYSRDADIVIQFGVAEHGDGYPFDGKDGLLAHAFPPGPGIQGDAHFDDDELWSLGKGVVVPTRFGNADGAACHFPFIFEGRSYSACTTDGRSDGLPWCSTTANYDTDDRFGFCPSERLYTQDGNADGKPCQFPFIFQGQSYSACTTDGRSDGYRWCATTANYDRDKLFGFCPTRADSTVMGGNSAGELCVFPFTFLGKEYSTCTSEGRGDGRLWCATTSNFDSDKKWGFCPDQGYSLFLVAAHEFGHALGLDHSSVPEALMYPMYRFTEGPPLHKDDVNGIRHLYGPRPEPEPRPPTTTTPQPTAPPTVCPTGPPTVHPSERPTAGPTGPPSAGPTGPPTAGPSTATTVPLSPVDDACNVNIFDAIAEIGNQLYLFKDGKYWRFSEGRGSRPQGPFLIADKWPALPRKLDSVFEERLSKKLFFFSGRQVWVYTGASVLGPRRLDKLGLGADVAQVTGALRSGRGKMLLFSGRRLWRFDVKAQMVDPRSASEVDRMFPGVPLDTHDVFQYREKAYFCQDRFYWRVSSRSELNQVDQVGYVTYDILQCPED

With `CNC(=O)[C@@H](NC(=O)c1ccc(-c2ccc(OCc3ccn[nH]3)cn2)o1)C1CCCCC1`, 0.036 µM corresponded to half-maximal inhibition in assay [1] (IC50). As for `CCCCCCCC/C=C\CCCCCCCC(=O)NNC(=O)[C@H](Cc1cc2ccccc2[nH]1)NC(=O)[C@@H](CC(=O)NO)CC(C)C`, in assay [2], the IC50 stood at 0.027 µM.

For the compound `Cc1cc(=O)c(O)c(C(=O)NCc2ccc(-c3ccccc3)cc2)o1`, the IC50 in assay [1] was 0.61 µM. As for `CCCCCCCC/C=C/CCCCCCCC(=O)O` [ELAIDIC ACID], in assay [2], the midpoint of inhibition, the IC50, lay at 2 µM.

`c1cc2nc(c1)CNCCNCCNCCNC2`: the inhibition in assay [3] and in assay [5] was 100% in each case. Also, the inhibition entry in assay [4] and in assay [6] was “Active” each time. Turning to `Cc1cc(=O)c(O)c(C(=O)NCc2ccc(-c3ccc(C#N)cc3)cc2)o1`, the IC50 in assay [1] stood at 9.3 µM.

With `c1cc2nc(c1)CNCCNCCCNCCNC2`, the inhibition in assay [3] and in assay [5] was 100% each time. The inhibition result in assay [4] and in assay [6] was “Active” each time. `N#Cc1ccc(Oc2ccc(S(=O)(=O)N3CCc4c([nH]c5ccccc45)C3C(=O)NO)cc2)cc1` (stereo unspecified) showed an IC50 in assay [1] of 0.15 µM. Turning to `O=C(NCc1ccco1)Nc1c[nH]c2cccnc2c1=O`, the IC50 in assay [1] turned out to be 5 µM. `O=C(NO)C1CN(C(=O)c2ccccc2)CCCN1C(=O)/C=C/c1ccc(O)c(O)c1` (stereo unspecified): the IC50 in assay [7] came to 8.2 µM.
